The values below are quoted from earlier work in patent US8697743B2, “Antioxidant camptothecin derivatives and antioxidant antineoplastic nanospheres thereof” (Cedars-Sinai Medical Center, priority 2008, dated 2014).

The conditions of data set [1]: 30 minutes after administration.

For `CC[C@@]1(O)C(=O)OCc2c1cc1n(c2=O)Cc2cc3ccccc3nc2-1` [camptothecin, (S)-4-ethyl-4-hydroxy-1H-pyrano-[3′,4′:6,7]indolizino[1,2-b]quinoline-3,14(4H,12H)-dione], the solubility in water result was “essentially insoluble in water”. Also, in data set [1], the “lactone form hydrolyzed to an open ring” value is 50%.
